The numbers were not newly measured in patent US20040043073A1, “Pharmaceutical compositions for drugs having pH-dependent solubility” (priority 2002, published 2004), which cites them from elsewhere.

Like-named read-outs stand apart in the source and are kept apart here.

For `CC[C@H]1OC(=O)[C@H](C)[C@@H](O[C@H]2C[C@@](C)(OC)[C@@H](O)[C@H](C)O2)[C@H](C)[C@@H](O[C@@H]2O[C@H](C)C[C@H](N(C)C)[C@H]2O)[C@](C)(OC)C[C@@H](C)C(=O)[C@H](C)[C@@H](O)[C@]1(C)O` [clarithromycin, 6-O-methylerythromycin A], the solubility entry is “very soluble” (in the stomach (pH 1.2)), “solubility decreases” (lower small intestine (pH 6 to 8)) and “fairly soluble” (upper region of the small intestine (pH 5.0)).
